Laboratory results: ChEMBL document CHEMBL1128587, “Structure-based inhibitors of influenza virus sialidase. A benzoic acid lead with novel interaction” (J Med Chem, 1995)
pIC50: −log10 of the molar value.

What was measured:
Format in all cases: functional, organism-based
Influenza A virus [1] = experiment: The compound was tested in vitro for the inhibitory concentration against influenza N2 sialidase from whole virus by fetuin assay
Influenza B virus [2] = experiment: The compound was tested in vitro for the inhibitory concentration against influenza B/Mem/89 sialidase from whole virus by MUN assay
Influenza B virus [3] = experiment: The compound was tested in vitro for the inhibitory concentration against influenza B/Mem/89 sialidase from whole virus by fetuin assay
Influenza A virus [4] = experiment: The compound was tested in vitro for the inhibitory concentration against influenza N2 sialidase from whole virus by MUN assay

| SMILES | pIC50 (Influenza A virus [1]) | pIC50 (Influenza B virus [2]) | pIC50 (Influenza B virus [3]) | pIC50 (Influenza A virus [4]) |
| --- | --- | --- | --- | --- |
| CC(=O)Nc1cc([N+](=O)[O-])c(C(=O)O)c([N+](=O)[O-])c1O | 2.52 | 3.00 | 2.40 | 3.00 |
| CC(=O)Nc1c(OC(C)=O)cc(C(=O)O)cc1[N+](=O)[O-] | 2.52 | 2.70 | 2.40 | 2.30 |
| CC(=O)Nc1ccc(C(=O)O)cc1NC(=O)CO | < 2.00 | 2.52 | 2.00 | 2.40 |
| CC(=O)Nc1ccc(C(=O)O)cc1N | < 2.00 | < 1.70 | – | < 2.00 |
| CC(=O)Nc1ccc(C(=O)O)cc1NC(=O)CCCN | < 2.00 | < 2.00 | < 2.00 | < 2.00 |
| CC(=O)N[C@H]1[C@H]([C@H](O)[C@H](O)CO)OC(C(=O)O)=C[C@@H]1O [NEU5AC2EN] | 4.82 | 4.82 | 4.82 | 4.82 |
| CC(=O)NC1C(O)CC(O)(C(=O)O)OC1[C@H](O)[C@H](O)CO (stereo partly drawn) | – | < 2.00 | – | – |
| CC(=O)Nc1c(O)cc(C(=O)O)cc1[N+](=O)[O-] | 3.00 | 3.12 | 3.00 | 3.12 |
| CC(=O)Nc1ccc(C(=O)O)cc1NC(=O)C(O)CO (stereo not drawn) | 2.40 | 2.10 | < 2.00 | 2.30 |
| CC(=O)Nc1ccc(C(=O)O)cc1[N+](=O)[O-] | 2.30 | 2.30 | 2.30 | 2.30 |
| CC(=O)Nc1ccc(C(=O)O)cc1OC(C)=O | 2.00 | < 2.00 | 2.30 | < 2.00 |
| CC(=O)Nc1c(N)cc(C(=O)O)cc1O | < 2.00 | 2.00 | < 2.00 | < 2.00 |
| CC(=O)Nc1ccc(C(=O)O)cc1O [3-HYDROXY-4-ACETYLAMINOBENZOIC ACID] | 2.00 | < 2.00 | 2.00 | < 2.00 |
